Values quoted from earlier work in patent publication US6372198B1, “Dentifrice for the mineralization and remineralization of teeth” (priority 2000, dated 2002).

Test system: periodontal disease
Conditions: oral administration (pills, capsules, powders); certain clinical studies

SMILES: COC1=C(OC)C(=O)C(C/C=C(\C)CC/C=C(\C)CC/C=C(\C)CC/C=C(\C)CC/C=C(\C)CC/C=C(\C)CC/C=C(\C)CC/C=C(\C)CC/C=C(\C)CCC=C(C)C)=C(C)C1=O [coenzyme Q10]
- symptoms of periodontal disease, including inflammation, swelling, and bleeding of the gum tissues: alleviated the symptoms of periodontal disease
